Like-named read-outs stand apart in the source and are kept apart here.
What was measured:
[1] = molecular target: T1, COX II enzyme (Mus musculus, UniProt Q05769); details: J. Biol. Chem., 268, 6610 (1993); cited from earlier work
T1 sequence (Q05769 18-604): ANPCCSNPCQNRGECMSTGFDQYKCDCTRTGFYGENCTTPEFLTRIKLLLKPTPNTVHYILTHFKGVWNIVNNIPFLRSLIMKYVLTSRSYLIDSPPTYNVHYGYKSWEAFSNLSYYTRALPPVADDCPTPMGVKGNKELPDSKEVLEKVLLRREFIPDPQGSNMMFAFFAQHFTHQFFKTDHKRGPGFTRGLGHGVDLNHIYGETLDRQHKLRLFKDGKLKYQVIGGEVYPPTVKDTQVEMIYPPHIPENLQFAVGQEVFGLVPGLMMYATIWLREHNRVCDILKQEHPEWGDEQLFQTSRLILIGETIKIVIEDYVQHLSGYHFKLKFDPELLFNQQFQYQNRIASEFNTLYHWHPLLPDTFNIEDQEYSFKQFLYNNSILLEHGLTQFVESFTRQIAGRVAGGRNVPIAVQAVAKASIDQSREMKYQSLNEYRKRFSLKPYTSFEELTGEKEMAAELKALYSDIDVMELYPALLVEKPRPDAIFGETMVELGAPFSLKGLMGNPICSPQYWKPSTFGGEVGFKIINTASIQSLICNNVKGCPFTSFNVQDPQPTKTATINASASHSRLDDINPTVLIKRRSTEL

[2] = molecular target: T2, human COX I (Homo sapiens, UniProt P23219); test: Assay for COX I activity in vitro (PGE2 ELISA, recombinant enzyme); assay type: biochemical
T2 construct: A 2.0 kb fragment containing the coding region; made in house; host or cells: SF9 insect cells (baculovirus, transfer vector pVL1393)
T2 sequence (P23219 24-599): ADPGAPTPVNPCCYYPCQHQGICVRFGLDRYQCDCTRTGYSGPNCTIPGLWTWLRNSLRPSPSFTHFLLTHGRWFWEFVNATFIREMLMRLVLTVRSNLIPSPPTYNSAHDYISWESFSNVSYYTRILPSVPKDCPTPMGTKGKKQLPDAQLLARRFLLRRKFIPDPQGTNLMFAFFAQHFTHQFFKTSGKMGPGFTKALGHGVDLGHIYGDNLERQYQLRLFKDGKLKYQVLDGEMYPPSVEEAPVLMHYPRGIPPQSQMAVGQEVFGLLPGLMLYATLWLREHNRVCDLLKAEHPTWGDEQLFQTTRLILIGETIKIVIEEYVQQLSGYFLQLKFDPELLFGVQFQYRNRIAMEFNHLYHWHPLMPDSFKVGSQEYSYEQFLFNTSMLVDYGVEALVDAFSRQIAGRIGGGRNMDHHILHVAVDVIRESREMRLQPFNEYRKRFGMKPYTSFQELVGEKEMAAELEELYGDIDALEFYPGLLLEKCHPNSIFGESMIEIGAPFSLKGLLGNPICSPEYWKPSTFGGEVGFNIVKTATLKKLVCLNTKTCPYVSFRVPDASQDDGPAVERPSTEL

[3] = molecular target: T3, human COX II (Homo sapiens, UniProt P35354); test: Assay for COX II activity in vitro (PGE2 ELISA, recombinant enzyme); assay type: biochemical
T3 construct: A 2.0 kb fragment containing the coding region; made in house; host or cells: SF9 insect cells (baculovirus, transfer vector pVL1393)
T3 sequence (P35354 18-604): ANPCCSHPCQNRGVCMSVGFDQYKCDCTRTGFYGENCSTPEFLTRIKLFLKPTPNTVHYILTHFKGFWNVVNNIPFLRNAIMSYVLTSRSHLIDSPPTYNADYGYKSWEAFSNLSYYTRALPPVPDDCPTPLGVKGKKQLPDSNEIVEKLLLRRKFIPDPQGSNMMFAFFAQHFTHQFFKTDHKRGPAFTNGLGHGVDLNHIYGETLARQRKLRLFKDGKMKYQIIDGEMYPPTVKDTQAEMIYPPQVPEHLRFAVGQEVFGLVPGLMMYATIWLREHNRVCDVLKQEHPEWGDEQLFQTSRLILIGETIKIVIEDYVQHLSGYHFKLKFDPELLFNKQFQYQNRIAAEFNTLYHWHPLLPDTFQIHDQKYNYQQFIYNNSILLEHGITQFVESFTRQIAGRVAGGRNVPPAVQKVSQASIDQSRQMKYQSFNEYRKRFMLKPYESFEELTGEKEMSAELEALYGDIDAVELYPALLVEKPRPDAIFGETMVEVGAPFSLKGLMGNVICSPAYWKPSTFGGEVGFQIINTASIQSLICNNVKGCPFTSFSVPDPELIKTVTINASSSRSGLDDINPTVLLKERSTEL

[4] = Whole Blood Assay for Thromboxane B2 Activity; assay type: cell-based; details: calcium ionophore A23187
Experimental: Whole Blood Assay for Thromboxane B2 Activity:
Thromboxane B2 (TXB2) activity was assayed using an ELISA to detect the TXB2 released. Various concentrations of compounds and standards were prepared by a set of serial dilutions (1:3) in a microtiter plate with ethanol. In U-bottom microtiter plates, 50 μl whole blood (green top heparin), 150 μl RPMI media (JRH Biosciences) and 5 μl compound solution were mixed and preincubated at 37° C. for fifteen minutes prior to the addition 4 μg of the calcium ionophore A23187. Any reaction between the compounds and the cells was stopped after ten minutes at 37° C. by centrifuging the cells at 2000 rpm for ten minutes at 4° C. and transferring 20 μl of the supernatant into 180 μl ELISA enzyme immuno assay buffer. The TXB2 formed was measured by standard ELISA technology (Cayman Chemical). To washed and pre-coated (goat anti-rabbit IgG H&L) microtiter plates, was added 40 μl enzyme immuno assay buffer, 10 μl diluted supernatants, 50 μl […] and 50 μl TXB2 antisera. After covered overnight incubation at room temperature. 200 μl Ellman reagent was added and incubated. The absorbance was read at 405 nm with a 650 nm reference.

[5] = molecular target: T4, Murine COX I (Mus musculus, UniProt P22437); test: Assay for COX I activity in vitro (PGE2 ELISA, recombinant enzyme); assay type: biochemical; details: read-out: Murine COX I ID50
T4 construct: A 2.0 kb fragment containing the coding region; made in house; host or cells: SF9 insect cells (baculovirus, transfer vector pVL1393)
T4 sequence (P22437 27-602): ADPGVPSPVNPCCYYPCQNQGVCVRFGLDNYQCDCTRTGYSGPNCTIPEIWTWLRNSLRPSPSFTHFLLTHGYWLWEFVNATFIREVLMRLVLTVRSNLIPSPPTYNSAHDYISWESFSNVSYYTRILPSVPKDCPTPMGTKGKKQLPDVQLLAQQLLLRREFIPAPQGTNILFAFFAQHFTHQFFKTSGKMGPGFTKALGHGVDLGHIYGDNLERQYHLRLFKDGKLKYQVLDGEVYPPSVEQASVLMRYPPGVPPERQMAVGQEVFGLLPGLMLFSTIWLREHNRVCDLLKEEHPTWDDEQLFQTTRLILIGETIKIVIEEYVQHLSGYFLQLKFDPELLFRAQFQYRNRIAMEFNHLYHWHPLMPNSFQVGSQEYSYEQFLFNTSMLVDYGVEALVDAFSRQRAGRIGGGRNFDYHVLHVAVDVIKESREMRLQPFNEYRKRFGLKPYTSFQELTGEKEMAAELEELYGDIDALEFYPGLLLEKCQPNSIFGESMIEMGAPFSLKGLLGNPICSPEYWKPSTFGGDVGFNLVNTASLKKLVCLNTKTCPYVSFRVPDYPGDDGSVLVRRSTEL

[6] = molecular target: T5, Murine COX II (Mus musculus, UniProt Q05769); test: Assay for COX II activity in vitro (PGE2 ELISA, recombinant enzyme); assay type: biochemical; details: read-out: Murine COX II ID50
T5 construct: A 2.0 kb fragment containing the coding region; made in house; host or cells: SF9 insect cells (baculovirus, transfer vector pVL1393)
T5 sequence (Q05769 18-604): T1 sequence (Q05769 18-604)

[7] = Gen. Pharmac., 24, 105 (1993); cited from earlier work
[8] = Gen. Pharmac., 24, 105 (1993); cited from earlier work; remark: listed apart in the source

Row | Compound | IC50 [4] [µM] | IC50 [5] [µM] | IC50 [6] [µM] | other results
1 | COc1ccc2cc(CC(=O)O)ccc2c1 [6-methoxy-2-napthylacetic acid] |  |  |  | selective inhibition of the COX II enzyme [1]: selectively inhibit the COX II enzyme
2 | CS(=O)(=O)c1ccc(-c2cscc2-c2ccc(F)cc2)cc1 [Example 1, 3-(4-Methylsulfonylphenyl)-4-(4-fluorophenyl)thiophene] | 21 |  |  | IC50 [2]: > 100 µM; IC50 [3]: < 0.1 µM
3 | CS(=O)(=O)c1ccc(-c2csc(Br)c2-c2ccc(F)cc2)cc1 [Example 2, 4(4-Methylsulfonylphenyl)-3-(4-fluorophenyl)-2-bromothiophene] | 0.4 | 3.5 |  | 
4 | CS(=O)(=O)c1ccc(-c2c(Br)sc(Br)c2-c2ccc(F)cc2)cc1 [Example 3, 4-(4-Methylsulfonylphenyl)-3-(4-fluorophenyl)-2,5-dibromothiophene] |  |  | 1.5 | 
5 | COc1ccc(-c2cscc2-c2ccc(OC)cc2)cc1 [Example 4, 3,4-Bis(4-methoxyphenyl)thiophene] | < 0.1 | 0.3 | 0.8 | 
6 | CCOC(=O)c1scc(-c2ccc(S(C)(=O)=O)cc2)c1-c1ccc(F)cc1 [Example 5, Ethyl[4-(4-methylsulfonylphenyl)-3-(4-fluorophenyl)thien-2-yl]carboxylate] |  | > 3 | < 0.1 | 
7 | COc1ccc(-c2cscc2-c2ccc(S(C)(=O)=O)cc2)cc1 [Example 6, 3-(4-Methylsulfonylphenyl)-4-(4-methoxyphenyl)thiophene] |  | < 0.3 | < 0.1 | 
8 | COc1ccc(-c2c(-c3ccc(S(C)(=O)=O)cc3)csc2Br)cc1 [Example 7, 3-(4-Methylsulfonylphenyl)-4-(4-methoxyphenyl)-5-bromothiophene] | < 0.1 | < 0.1 | < 0.1 | 
9 | CCOC(=O)c1sc(C(=O)O)c(-c2ccc(F)cc2)c1-c1ccc(S(C)(=O)=O)cc1 [Example 8, 2-Ethoxycarbonyl-4-(4-fluorophenyl)-3-(4-methanesulfonylphenyl)-thienyl-5-carboxylic acid] |  | > 100 | 5.5 | 
10 | CS(=O)(=O)c1ccc(-c2c(C(=O)O)sc(C(=O)O)c2-c2ccc(F)cc2)cc1 [Example 9, 4-(4-Fluorophenyl)-3-(4-methanesulfonylphenyl)thienyl-2,5-dicarboxylic acid] |  | > 100 | 4.7 | 
11 | CS(=O)(=O)c1ccc(-c2cscc2-c2ccccc2)cc1 [Example 10, 3-(4-Methanesulfonylphenyl)-4-phenyl-thiophene] | 7 | > 10 | < 0.1 | 
12 | Cc1ccc(-c2cscc2-c2ccc(S(C)(=O)=O)cc2)cc1 [Example 11, 3-(4-Methanesulfonylphenyl)-4-(4-methylphenyl)thiophene] | 7 | > 100 | < 0.1 | 
13 | NS(=O)(=O)c1ccc(-c2cscc2-c2ccc(F)cc2)cc1 [Example 12, 4-[4-(4-Fluorophenyl)thien-3-yl]benzenesulfonamide] |  |  |  | melting point: 194 to 195 °C
14 | CS(=O)(=O)c1ccc(-c2cocc2-c2ccc(F)cc2)cc1 [Example 13, 3-(4-Fluorophenyl)-4-(methylsulfonylphenyl)furan] |  |  |  | IC50 ([2]; human COX I enzyme (footnote *), read-out: COX I ID50): > 100 µM; IC50 ([3]; human COX II enzyme (footnote *), read-out: COX II ID50): 1.9 µM; melting point: 160 to 161 °C
15 | CS(=O)(=O)c1ccc(-c2cscc2-c2ccc(F)nc2)cc1 [Example 14] | 27 | > 10 | 0.2 | melting point: 190 to 191 °C (dec.)
16 | Cc1cc(F)ccc1-c1cscc1-c1ccc(S(C)(=O)=O)cc1 [Example 15, 3-(4-Methylsulfonylphenyl)-4-(2-methyl-4-fluorophenyl)thiophene] | 28 | 8.5 |  | melting point: 158 to 160 °C
17 | CS(=O)(=O)Nc1ccc([N+](=O)[O-])cc1OC1CCCCC1 [N-(2-cyclohexyloxy-4-nitrophenyl)methanesulfonamide] |  |  |  | antiinflammatory activity [7]: antiinflammatory; gastric side effects [8]: lacks gastric side effects
